Assay results taken from ChEMBL document CHEMBL1201862, “PubChem BioAssay data set” (2004).
Activity calls are given as the source filed them.

Tests used:
HEK293 [1] = assay: HEK293T cell viability loss, resazurin readout – resazurin fluorescence, cytotoxicity control for NF-kB activator project, SAR follow-up (AID 493251); type: functional, cell-based; details: Homo sapiens
[2] = HEK-293T cell viability reduction – luminescence, B-cell screen hits, cytotoxicity control for BCR NF-kB inhibitor project, dose response (AID 489021); type: functional, cell-based;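 note: HEK-293T cells carrying an NF-kB luciferase reporter; cells exposed to compound for about 14 hours before viability readout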
HEK293 [3] = assay: SAR Analysis of small molecule inhibitors of T-cell specific antigen receptor-induced NF-kB activation in a HEK-293T cell line using a luminescence assay - Set 2. [Related pubchem assays (depositor defined):AID435003, AID435012, AID489026]; type: functional, cell-based; details: Homo sapiens
Jurkat [4] = assay: SAR Analysis of small molecule inhibitors of T-cell specific antigen receptor-induced NF-kB activation in a Jurkat cell line using a luminescence assay - Set 2. [Related pubchem assays (depositor defined):AID435003, AID435012, AID465]; type: functional, cell-based; details: Homo sapiens
[5] = biological target: 5-hydroxytryptamine receptor 5A (Homo sapiens, UniProt P47898); assay: Counterscreen for agonists of OPRM1-OPRD1 heterodimerization: luminescence-based cell-based high throughput dose response assay to identify agonists of 5-hydroxytryptamine (serotonin) 5A receptor (HTR5A). [Related pubchem assays (depositor defined):AID504326, AID504355, AID504692, AID504904, AID504905]; type: functional
[6] = biological target: Opioid receptors; mu & delta (Homo sapiens, UniProt P41143+P35372); assay: OPRM1-OPRD1 heterodimer agonist potency – cell-based, luminescence, dose response (AID 588407); type: functional
Mu-type opioid receptor = Mu-type opioid receptor (Homo sapiens, UniProt P35372); assay: (§1) Counterscreen for agonists of heterodimerization of the mu 1 (OPRM1) and delta 1 (OPRD1) opioid receptors: Luminescence-based cell-based high throughput dose response assay to identify agonists of OPRM1 homodimerization.; type: functional
[7] = biological target: Delta-type opioid receptor (Homo sapiens, UniProt P41143); assay: as §1, with “of OPRD1” for “of OPRM1”, “homodimerization. [Related pubchem assays (depositor defined):AID504326, AID504355, AID504692, AID504904, AID504905]” for “homodimerization.”; type: functional
[8] = biological target: T1, Short transient receptor potential channel 4 (Mus musculus, UniProt Q9QUQ5); assay: calcium entry via TRPC4 opening agents – cell-based, HEK293 TRPC4/mu-opioid, Fluo-4 calcium, dose response (AID 434937); type: functional
T1 sequence (Q9QUQ5 whole entry): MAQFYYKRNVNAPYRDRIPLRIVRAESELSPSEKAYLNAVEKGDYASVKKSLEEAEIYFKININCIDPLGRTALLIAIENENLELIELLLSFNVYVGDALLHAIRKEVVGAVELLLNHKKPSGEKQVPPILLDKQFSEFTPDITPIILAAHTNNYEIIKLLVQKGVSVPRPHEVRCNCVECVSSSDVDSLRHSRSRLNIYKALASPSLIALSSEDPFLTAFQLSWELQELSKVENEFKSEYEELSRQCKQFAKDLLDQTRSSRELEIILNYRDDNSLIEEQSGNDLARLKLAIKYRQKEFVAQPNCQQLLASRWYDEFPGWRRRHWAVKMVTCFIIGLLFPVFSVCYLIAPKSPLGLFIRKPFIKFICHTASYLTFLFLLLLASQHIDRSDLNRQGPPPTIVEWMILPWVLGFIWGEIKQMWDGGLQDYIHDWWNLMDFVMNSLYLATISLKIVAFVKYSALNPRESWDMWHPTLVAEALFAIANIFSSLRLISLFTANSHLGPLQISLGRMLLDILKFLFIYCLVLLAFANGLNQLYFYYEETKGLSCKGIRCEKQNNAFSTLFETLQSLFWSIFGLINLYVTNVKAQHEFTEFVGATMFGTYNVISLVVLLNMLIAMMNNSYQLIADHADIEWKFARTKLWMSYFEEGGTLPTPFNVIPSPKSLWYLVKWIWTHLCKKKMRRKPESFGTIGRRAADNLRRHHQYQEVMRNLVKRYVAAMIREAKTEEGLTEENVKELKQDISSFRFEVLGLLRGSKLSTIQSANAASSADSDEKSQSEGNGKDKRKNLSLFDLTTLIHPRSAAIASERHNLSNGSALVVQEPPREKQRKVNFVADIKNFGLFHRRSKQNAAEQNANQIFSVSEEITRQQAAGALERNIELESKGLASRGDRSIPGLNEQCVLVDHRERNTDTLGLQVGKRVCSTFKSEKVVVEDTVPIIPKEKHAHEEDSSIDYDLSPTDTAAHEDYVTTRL

[9] = viability of HCT116 lacking mutant beta-catenin – cell-based, human colon tumor, dose response (AID 1045); type: functional;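 note: HCT116 colon tumor cells with beta catenin knocked out; cells exposed to compound for 60 hours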
[10] = Vero E6 cell cytotoxicity, dose response, cytotoxicity control for non-replicating M. tuberculosis project, secondary assay (AID 492998); type: functional, VeroE6; details: Vero C1008
[11] = fluconazole-exposed Candida albicans growth modulators – fluorescence, retest, confirmation (AID 2467); type: functional, cell-based
[12] = viability loss of HPDE-C7K cells – cell-based, fluorescence, HTS, primary screen (AID 431); type: functional; details: Homo sapiens
[13] = NIH-3T3 fibroblast cytotoxicity, dose response, cytotoxicity control, cell-based, fluorescence, Alamar Blue, secondary assay (AID 2327); type: functional;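 note: NIH-3T3 mouse fibroblasts cultured with fluconazole at 8 µg/mL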
[14] = HepG2 cell cytotoxicity, dose response, cytotoxicity control for non-replicating M. tuberculosis project (AID 489018); type: functional; details: Mycobacterium tuberculosis
[15] = THP-1 cell cytotoxicity, dose response, cytotoxicity control for non-replicating M. tuberculosis project (AID 489025); type: functional
[16] = viability of PTEN-deleted HCT116 cells – cell-based, HCT116 PTEN knockout, dose response (AID 1047); type: functional;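 note: HCT116 colon tumor cells with PTEN knocked out; cells exposed to compound for 60 hours before readout; potency for loss of cell viability measured by luminescence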
[17] = HPDE-C7 pancreatic duct cell viability loss – fluorescence, HTS (AID 430); type: functional, cell-based; details: Homo sapiens
cells = type: functional
A-375 [18] = assay: MITF: Counter assay: A375 proliferation Measured in Cell-Based System Using Plate Reader - 2084-03_Inhibitor_Dose_DryPowder_Activity. [Related pubchem assays (depositor defined):AID488944]; type: functional; details: Homo sapiens
A-375 [19] = assay: proliferation inhibition in MITF-low A375 cells – cell-based, cherry-pick samples, set 2, counter-screen for MITF modulator project, dose response (AID 540335); type: functional; details: Homo sapiens
[20] = reduced cellular PGC1a acetyl-lysine signal – cell-based, cherry-picked samples, dose response (AID 720514); type: functional;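 note: potency may reflect raised or lowered acetylation signal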
[21] = biological target: T2, Microphthalmia-associated transcription factor (Homo sapiens, UniProt O75030); assay: reducers of TRPM1 reporter luminescence, concentration series – cell-based, SK-MEL-5, cherry-picked, set 3, MITF inhibitor project, dose response (AID 493073); type: functional;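 note: SK-MEL-5 melanoma cells with luciferase driven by the MITF target TRPM1 promoter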
T2 sequence (O75030 whole entry): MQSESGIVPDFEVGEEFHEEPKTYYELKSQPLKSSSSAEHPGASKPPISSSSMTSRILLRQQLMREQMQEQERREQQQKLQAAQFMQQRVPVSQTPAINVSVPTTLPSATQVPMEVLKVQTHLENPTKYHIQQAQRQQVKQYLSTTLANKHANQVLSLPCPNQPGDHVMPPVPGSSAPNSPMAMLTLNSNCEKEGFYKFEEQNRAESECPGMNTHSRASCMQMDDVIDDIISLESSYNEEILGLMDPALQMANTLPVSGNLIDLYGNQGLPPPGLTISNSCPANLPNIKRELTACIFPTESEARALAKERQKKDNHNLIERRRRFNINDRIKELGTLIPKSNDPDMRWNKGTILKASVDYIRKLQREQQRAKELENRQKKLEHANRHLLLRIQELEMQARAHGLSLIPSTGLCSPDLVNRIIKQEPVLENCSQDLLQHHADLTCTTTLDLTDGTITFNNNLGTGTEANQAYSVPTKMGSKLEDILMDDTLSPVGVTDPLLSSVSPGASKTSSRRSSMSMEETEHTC

[22] = biological target: Dual specificity tyrosine-phosphorylation-regulated kinase 1A (Rattus norvegicus, UniProt Q63470); type: biochemical, Homo sapiens
[23] = biological target: Dual specificity protein kinase CLK1 (Homo sapiens, UniProt P49759); assay: inhibition of human CLK1 activity – biochemical, cherry-picked samples, selectivity assay for Dyrk1A inhibitor project, dose response (AID 588811)
[24] = blockers of HIV-1 envelope-mediated cell-cell fusion – cherry-pick, dose response (AID 652057); type: functional, cell-based
H4 [25] = assay: Inhibitors of Prion Protein 5' UTR mRNA Measured in Cell-Based System Using Plate Reader - 2078-01_Inhibitor_Dose_DryPowder_Activity. [Related pubchem assays (depositor defined):AID488894]; type: functional; details: Homo sapiens
[26] = HIV-1 AD8 envelope cell-cell fusion blockers – cherry-pick, dose response (AID 652062); type: functional, cell-based;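 note: luciferase signal from cell-cell fusion driven by HIV-1 clade B AD8 Env; potency is for inhibitors of fusion seen as a drop in luminescence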
[27] = blockers of bursicon-stimulated LGR2 cAMP reporter – cell-based, HEK293, CRE-luciferase reporter, cherry pick, set 2, dose response (AID 743343); type: functional;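 note: transfected cells were stimulated with diluted bursicon conditioned medium after compound addition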
[28] = blockers of HIV-1 ZM109 envelope-driven cell-cell fusion – HeLa effector, CEM target cells, luciferase, cherry-pick, dose response (AID 652058); type: functional, cell-based;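 note: luciferase signal from HIV-1 Env mediated cell-cell fusion of effector and target cells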
[29] = HEK-293T viability loss, compound-treated – cell-based, uHTS hits, cytotoxicity control for B/T-cell NF-kB inhibitor project, dose response (AID 489019); type: functional;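 note: IC50 reflects cytotoxicity as loss of cell viability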
H4 [30] = assay: inhibitors of control reporter signal in H4 cells – cell-based, plate reader, dry powder samples, counter-screen for prion reporter project, dose response (AID 540255); type: functional; details: Homo sapiens
[31] = off-target signal loss in HeLa-CEM21 co-culture – HeLa F-luc CTL cells, cherry-picked, counter-screen for HIV-1 Env fusion inhibitor project, dose response (AID 652040); type: functional, cell-based;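 note: potency for signal decrease marking cytotoxic or nonspecific inhibition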
[32] = blockade of melanocortin 4 receptor signaling – cell-based, plate reader, cherry pick, counter-screen for LGR2 antagonist project, dose response (AID 743444); type: functional;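 note: transfected HEK 293 cells stimulated with alpha-MSH peptide; potency of inhibitors of the alpha-MSH evoked signal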
Jurkat [33] = assay: blockers of NF-kB activation in T cells – Jurkat, luciferase reporter, luminescence, B- and T-cell, dose response (AID 489004); type: functional, cell-based; details: Homo sapiens;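 note: NF-kB luciferase reporter Jurkat cells stimulated with PMA plus ionomycin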
[34] = A549 cell cytotoxicity, dose response, cytotoxicity control, plate reader, cherry-pick, antagonist series (AID 743412); type: functional, cell-based
DNA topoisomerase = DNA topoisomerase (Yersinia pestis, UniProt A0A2S9PM60); assay: Yersinia topoisomerase I cleavage product accumulation – biochemical, cherry-pick, dose response (AID 588525)
Chain of DNA topoisomerase (A0A2S9PM60 whole entry): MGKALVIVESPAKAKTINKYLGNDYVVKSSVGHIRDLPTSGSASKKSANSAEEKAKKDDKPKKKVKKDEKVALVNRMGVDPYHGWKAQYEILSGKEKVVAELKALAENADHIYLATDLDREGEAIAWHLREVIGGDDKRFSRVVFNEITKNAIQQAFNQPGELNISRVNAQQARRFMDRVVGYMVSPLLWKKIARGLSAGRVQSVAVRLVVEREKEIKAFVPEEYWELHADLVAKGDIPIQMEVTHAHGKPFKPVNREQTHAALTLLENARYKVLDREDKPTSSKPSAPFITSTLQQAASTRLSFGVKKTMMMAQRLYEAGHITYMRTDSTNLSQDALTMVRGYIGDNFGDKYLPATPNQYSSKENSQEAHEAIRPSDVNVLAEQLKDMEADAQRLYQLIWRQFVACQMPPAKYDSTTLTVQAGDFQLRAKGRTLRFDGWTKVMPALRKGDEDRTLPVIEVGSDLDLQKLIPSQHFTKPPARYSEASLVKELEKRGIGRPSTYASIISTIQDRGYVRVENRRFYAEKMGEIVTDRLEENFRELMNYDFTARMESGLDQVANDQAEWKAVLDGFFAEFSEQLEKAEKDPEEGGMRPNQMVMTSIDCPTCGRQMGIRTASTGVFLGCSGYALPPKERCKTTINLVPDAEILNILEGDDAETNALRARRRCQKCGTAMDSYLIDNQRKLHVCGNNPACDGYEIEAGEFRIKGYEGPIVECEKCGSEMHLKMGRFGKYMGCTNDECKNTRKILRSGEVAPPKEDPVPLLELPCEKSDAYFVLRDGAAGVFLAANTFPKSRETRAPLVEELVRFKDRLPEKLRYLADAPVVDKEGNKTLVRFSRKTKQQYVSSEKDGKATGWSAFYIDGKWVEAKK

Chain of 5-hydroxytryptamine receptor 5A (P47898 whole entry): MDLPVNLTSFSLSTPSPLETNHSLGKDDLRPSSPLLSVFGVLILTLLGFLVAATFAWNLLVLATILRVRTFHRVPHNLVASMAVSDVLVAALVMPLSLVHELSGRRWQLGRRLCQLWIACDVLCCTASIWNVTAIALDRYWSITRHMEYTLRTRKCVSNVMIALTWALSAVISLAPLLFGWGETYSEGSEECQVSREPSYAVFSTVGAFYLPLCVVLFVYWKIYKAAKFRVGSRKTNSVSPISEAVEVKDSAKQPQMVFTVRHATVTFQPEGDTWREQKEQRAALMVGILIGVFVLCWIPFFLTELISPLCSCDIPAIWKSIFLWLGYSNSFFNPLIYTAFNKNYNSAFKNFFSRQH
Chain of Delta-type opioid receptor (P41143 whole entry): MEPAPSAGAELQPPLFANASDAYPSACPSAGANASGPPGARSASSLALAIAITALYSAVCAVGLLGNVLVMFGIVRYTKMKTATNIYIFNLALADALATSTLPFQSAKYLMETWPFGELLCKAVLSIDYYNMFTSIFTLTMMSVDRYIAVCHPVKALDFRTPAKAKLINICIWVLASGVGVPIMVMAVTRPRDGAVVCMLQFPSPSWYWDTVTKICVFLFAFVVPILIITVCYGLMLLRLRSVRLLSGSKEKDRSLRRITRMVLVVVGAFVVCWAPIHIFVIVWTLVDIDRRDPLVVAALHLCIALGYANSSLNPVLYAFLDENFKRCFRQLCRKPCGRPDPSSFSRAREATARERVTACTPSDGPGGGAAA
Chain of Dual specificity protein kinase CLK1 (P49759 whole entry, the tested form may be a part): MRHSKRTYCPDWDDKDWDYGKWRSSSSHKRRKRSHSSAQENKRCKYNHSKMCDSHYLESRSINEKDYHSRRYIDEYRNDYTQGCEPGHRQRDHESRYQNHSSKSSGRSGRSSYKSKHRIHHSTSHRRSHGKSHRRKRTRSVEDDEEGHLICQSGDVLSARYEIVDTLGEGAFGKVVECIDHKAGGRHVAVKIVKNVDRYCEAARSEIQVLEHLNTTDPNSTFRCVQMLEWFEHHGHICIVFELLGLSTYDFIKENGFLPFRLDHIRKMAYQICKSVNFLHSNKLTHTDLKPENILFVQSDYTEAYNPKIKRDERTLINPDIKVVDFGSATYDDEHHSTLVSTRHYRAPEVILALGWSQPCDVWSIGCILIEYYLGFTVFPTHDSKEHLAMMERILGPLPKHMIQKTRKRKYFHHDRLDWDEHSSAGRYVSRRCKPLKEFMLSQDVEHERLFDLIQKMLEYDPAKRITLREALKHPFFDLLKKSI
Chain of Mu-type opioid receptor (P35372 whole entry): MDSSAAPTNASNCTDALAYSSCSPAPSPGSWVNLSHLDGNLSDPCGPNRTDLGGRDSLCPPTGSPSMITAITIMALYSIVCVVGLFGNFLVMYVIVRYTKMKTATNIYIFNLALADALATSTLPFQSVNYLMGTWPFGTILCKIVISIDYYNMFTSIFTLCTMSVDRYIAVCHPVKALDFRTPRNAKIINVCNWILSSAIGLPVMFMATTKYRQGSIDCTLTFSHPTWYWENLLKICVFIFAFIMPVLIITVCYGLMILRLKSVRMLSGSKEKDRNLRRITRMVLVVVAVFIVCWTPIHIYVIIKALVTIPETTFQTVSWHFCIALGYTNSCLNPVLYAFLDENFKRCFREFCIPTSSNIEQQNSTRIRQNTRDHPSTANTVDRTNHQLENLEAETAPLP

Structure (SMILES): O=C(Nc1nc2c(Br)cc(Br)cc2c(=O)s1)c1ccco1
- IC50 (HEK293 [1]): > 80 µM (inactive)
- IC50 [2]: > 80 µM (inactive)
- IC50 (HEK293 [3]): > 80 µM (inactive)
- IC50 (Jurkat [4]): 6.7 µM (active)

Structure (SMILES): COc1ccccc1N1CCN(C(c2cccs2)C(C)NC(=O)c2ccco2)CC1 (stereo not drawn)
- EC50 [5]: > 92.5 µM (inactive)
- EC50 [6]: > 3.425 µM
- EC50 (Mu-type opioid receptor): 50.3 µM (inactive)
- EC50 [7]: > 92.5 µM (inactive)
- EC50 [8]: 0.084 µM (active)

Structure (SMILES): COc1ccc(C(=O)C(CN2CCCC2)c2ccccc2)cc1 (stereo not drawn)
- EC50 [9]: 1.83 µM (active)
- CC50 [10]: 11.6 µM (active)
- EC50 [11]: 2.13 µM (active)
- EC50 [12]: 6.46 µM (active)
- EC50 [13]: 59.6 µM (active)
- CC50 [14]: 17.3 µM (active)
- CC50 [15]: 7.27 µM (active)
- EC50 [16]: 2.44 µM (active)
- EC50 [17]: 4.54 µM (active)
- IC50 (cells): 16.5 µM (active)
- AC50 (A-375 [18]): > 35 µM (active)
- AC50 (A-375 [19]): > 35 µM (active)
- AC50 [20]: 10.5 µM (active)
- AC50 [21]: 9.13 µM (active)

Structure (SMILES): COc1cccc(Nc2ncnc3sc(C)cc23)c1
- AC50 [22]: 3.81 µM (active)
- AC50 [23]: 5.47 µM (active)

Structure (SMILES): COc1cccc(NC(=O)Nc2cccc(C(=O)O)c2)c1
- AC50 [24]: 1.8 µM (active)
- AC50 (H4 [25]): 0.915 µM (active)
- AC50 [26]: 3.29 µM (active)
- AC50 [27]: 1.56 µM (active)
- AC50 [28]: 7.32 µM (active)
- IC50 [29]: > 80 µM (inactive)
- AC50 (H4 [30]): 3.95 µM (active)
- AC50 [31]: 2.11 µM (active)
- AC50 [32]: 2.35 µM (active)
- IC50 (Jurkat [33]): 1.9 µM (active)
- AC50 [21]: 2.37 µM (active)
- AC50 [34]: > 52 µM (inactive)

Structure (SMILES): CC(C)CC1NC(=O)c2cc3ccccc3cc2-n2c1nc1cc(Cl)ccc1c2=O (stereo not drawn)
- AC50 (DNA topoisomerase): 10.2 µM (active)
